Patent publication US20020077296A1, “High-throughput screening method” (priority 2000, published 2002)
Read-outs that look alike come from different tables or passages of the source. Blank lines part the entries; values can stand above or below the compound they belong to.

Key:
[1] = target: Rho-kinase; conditions: read-out: Ki value; cited from earlier work
[2] = target: T1, Rho-kinase (Bos taurus, UniProt Q28021); assay: antibody plate assay: Rho-kinase immobilized from bovine brain extract, phosphorylation of Histone HF2A; assay type: biochemical; conditions: Histone HF2A substrate, [33P]ATP, reaction time four hours
T1 construct: thus detecting the band of Rho-kinase at around 160 kDa; tissue Shiraimatsu; host or cells: bovine brain (cerebral gray matter) extract
T1 sequence (Q28021 whole entry): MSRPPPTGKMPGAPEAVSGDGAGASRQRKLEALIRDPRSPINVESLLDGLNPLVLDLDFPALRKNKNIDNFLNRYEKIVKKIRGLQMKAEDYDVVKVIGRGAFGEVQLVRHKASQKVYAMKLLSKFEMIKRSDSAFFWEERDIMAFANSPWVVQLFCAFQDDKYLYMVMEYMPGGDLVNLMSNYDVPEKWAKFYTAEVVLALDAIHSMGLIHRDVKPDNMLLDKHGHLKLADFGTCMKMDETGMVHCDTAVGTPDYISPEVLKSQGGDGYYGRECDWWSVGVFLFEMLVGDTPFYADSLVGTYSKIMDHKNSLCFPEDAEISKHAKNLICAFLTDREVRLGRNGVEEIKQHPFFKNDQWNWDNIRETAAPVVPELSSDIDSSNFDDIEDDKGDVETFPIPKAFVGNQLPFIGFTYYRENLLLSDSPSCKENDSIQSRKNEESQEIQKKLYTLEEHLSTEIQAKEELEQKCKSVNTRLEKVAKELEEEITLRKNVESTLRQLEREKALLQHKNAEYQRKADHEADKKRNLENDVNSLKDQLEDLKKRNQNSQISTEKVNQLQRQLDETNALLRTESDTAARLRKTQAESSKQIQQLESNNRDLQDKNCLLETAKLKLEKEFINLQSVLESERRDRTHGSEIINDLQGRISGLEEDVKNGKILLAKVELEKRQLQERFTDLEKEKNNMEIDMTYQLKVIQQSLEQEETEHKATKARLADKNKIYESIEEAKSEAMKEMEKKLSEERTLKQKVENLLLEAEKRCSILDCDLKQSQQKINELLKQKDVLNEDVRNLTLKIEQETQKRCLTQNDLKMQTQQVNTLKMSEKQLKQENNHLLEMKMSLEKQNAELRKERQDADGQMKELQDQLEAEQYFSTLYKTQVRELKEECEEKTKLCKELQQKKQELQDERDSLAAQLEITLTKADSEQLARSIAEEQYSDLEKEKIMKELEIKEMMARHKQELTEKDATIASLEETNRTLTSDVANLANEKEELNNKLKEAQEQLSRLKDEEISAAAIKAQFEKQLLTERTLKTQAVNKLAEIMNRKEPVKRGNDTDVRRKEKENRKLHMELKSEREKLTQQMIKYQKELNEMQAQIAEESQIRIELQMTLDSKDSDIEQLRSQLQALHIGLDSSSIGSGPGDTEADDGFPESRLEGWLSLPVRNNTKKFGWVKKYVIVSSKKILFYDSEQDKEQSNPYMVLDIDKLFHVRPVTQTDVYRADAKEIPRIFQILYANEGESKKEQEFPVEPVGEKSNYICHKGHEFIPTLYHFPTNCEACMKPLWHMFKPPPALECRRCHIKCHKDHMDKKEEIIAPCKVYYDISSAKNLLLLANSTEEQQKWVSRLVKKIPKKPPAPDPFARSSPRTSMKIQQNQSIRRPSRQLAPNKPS
Procedure: After allowed to stand for 1.5 hours at room temperature, the solution was removed, and 200 μl of blocking solution in which Block Ace (DAINIPPON PHARMACEUTICAL) UK-B25 was diluted four times with PBS(−)) was added into the plate, followed by stirring the solution therein. The plate was allowed to stand for additional 1.5 hours at room temperature, washed three times with 200 μl of PBST (0.05% Tween20/PBS(−)), and added with a 0.1 μg/50 μl solution of anti-Rho-kinase antibody in PBS(−).
(§1) ATP/30 μl. […] The reaction time was four hours.
(§2) SPA Multiscreen method was used for the estimation of the plate.
The inhibitory activity of these inhibitors was determined based on the radioactivity showing the phosphorylation that was detected in the antibody plate assay system, and compared to those previously reported, so that the plate was estimated in terms of the usefulness in a screening system for discovering inhibitors.

[3] = target: T2, ROKa/ROK-II, active Cat (Rattus norvegicus, UniProt Q62868); assay: phosphorylation assay with ROKa/ROK-II, active Cat (Upstate) under a similar condition; assay type: biochemical
T2 construct: purchased Upstate
T2 sequence (Q62868 11-552 limits assumed): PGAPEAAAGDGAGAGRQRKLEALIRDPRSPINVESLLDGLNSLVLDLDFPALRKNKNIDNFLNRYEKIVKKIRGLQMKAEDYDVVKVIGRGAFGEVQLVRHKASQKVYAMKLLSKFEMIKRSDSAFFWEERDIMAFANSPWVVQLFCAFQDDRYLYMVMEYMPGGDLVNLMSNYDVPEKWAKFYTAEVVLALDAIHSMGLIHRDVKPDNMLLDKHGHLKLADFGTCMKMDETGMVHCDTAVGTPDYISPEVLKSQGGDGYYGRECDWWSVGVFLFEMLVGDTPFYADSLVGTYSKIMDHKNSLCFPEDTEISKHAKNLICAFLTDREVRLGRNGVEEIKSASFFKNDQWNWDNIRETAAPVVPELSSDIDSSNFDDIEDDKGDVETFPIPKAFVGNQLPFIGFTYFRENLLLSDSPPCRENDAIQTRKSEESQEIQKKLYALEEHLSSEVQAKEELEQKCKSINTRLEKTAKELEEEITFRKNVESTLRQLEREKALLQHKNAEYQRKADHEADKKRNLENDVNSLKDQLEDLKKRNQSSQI
Procedure: as §1, §2

[4] = system: Rho-kinase; assay: inhibition of the binding of Rho-kinase to anti-Rho-kinase antibody-immobilized plate; design: species or system bovine
Procedure: Fifty μl of the dilution of the rabbit anti-goat IgG/Fc (Nippon Chemi-Con Corp.) in PBS(−) was pipetted into Immunoplate II (Nunc, 442404, High binding capacity) or a fluorescence/luminescence solid assay plate (COSTAR, 3922 white). After allowed to stand for 1.5 hours at room temperature, the solution was removed, and 200 μl of blocking solution in which Block Ace (DAINIPPON PHARMACEUTICAL) UK-B25 was diluted four times with PBS(−)) was added into the plate, followed by stirring the solution therein. The plate was allowed to stand for additional 1.5 hours at room temperature, washed three times with 200 μl of PBST (0.05% Tween20/PBS(−)), and added with a 0.1 μg/50 μl solution of anti-Rho-kinase antibody in PBS(−). After allowed to stand for additional 1.5 hours at room temperature, the plate was washed three times with 200 μl of PBST. Into the plate was placed 50 μl of 1.5 mg/ml bovine brain lysates, and the resultant plate was allowed to stand overnight at 4° C. This was washed twice with 200 μl of PBST, and once with 200 μl of PBS(−) to provide an immobilized plate.
Various concentrations of the antigen peptide used to prepare the anti-Rho-kinase antibody were supplemented to the bovine brain extract, and then Rho-kinase in the extract was immobilized onto the plate under the optimal conditions as found in Example 5. […]

Compound: C[C@@H](N)[C@H]1CC[C@H](C(=O)Nc2ccncc2)CC1 [Y-27632]
- Ki [1]: 140 nM
- IC50 ([2]; IC50 value, bovine brain): 350 nM
- IC50 [3]: 790 nM

- IC50 ([2]; read-out: IC50 value, bovine brain): 20000 nM
- IC50 ([3]; similar assay condition, read-out: IC50 value, ROKa/ROK-II active Cat): 11000 nM
Compound: COc1ccc2c(c[n+](C)c3c4cc5c(cc4ccc23)OCO5)c1OC [chelerythrine]

- inhibition of the immobilization of Rho-kinase ([4]; 3.5 μM of the peptide): ~100%
- IC50 ([4]; peptide supplemented to bovine brain extract, read-out: IC50 value, inhibition of immobilization of Rho-kinase): 350 nM
Compound: IQQNQSIRRPSRQLAPNKPS [antigen peptide, 20 amino acid C-terminal partial peptide of Rho-kinase used to prepare the anti-Rho-kinase antibody]
